Results taken from patent US20080063643A1, “Peptide Derived From Hepatitis C Virus” (priority 2003, published 2008).

Test system: peptide-specific IgG in the serum
Assay: ELISA of peptide-specific IgG in sera of HCV patients and healthy donors (Example 1)
Type: binding, human
Details: ELISA, cut-off value 1.83; for Healthy donors (n = 10) Positive n: number of 10 healthy donors with serum IgG reactive to the peptide; for HCV patients (n = 12) Positive n: number of 12 HCV patients with serum IgG reactive to the peptide; for Healthy donors (n = 10) Positive %: share of 10 healthy donors with serum IgG reactive to the peptide; for HCV patients (n = 12) Positive %: share of 12 HCV patients with serum IgG reactive to the peptide
Description: Synthetic peptides having an HLA-A2-binding motif or an HLA-A24-binding motif from a conserved region of HCV genotype 1b protein were used in this study (Table 1). A peptide derived from HIV having an HLA-A2-binding motif was used as a negative control. All of these peptides were purchased from a commercially supplier. The purity was analyzed by reverse-phase high-pressure liquid chromatography and found to be 90% or higher.
The level of the peptide-specific IgG in the serum was measured by ELISA. First, each peptide was dissolved in dimethyl sulfoxide (DMSO) and stored at −80° C. The peptide was diluted with 0.1 M sodium carbonate/sodium bicarbonate solution containing disuccinimidyl suberate (DSS) as a crosslinker. An ELISA plate was coated with 20 μg/well of peptide at 4° C. overnight. The wells were washed 3 times with 0.05% Tween 20/PBS (PBST), and the plate was blocked with Block Ace (registered trademark) and left overnight at 4° C. Plasma or serum samples were diluted in 1:100, 1:200 and 1:400 with 0.05% Tween 20/Block Ace, and 100 μl of each of the samples was added to each well. After the samples were incubated at 37° C. for 2 hours, the plate was washed 9 times with PBST, 100 μl of a 1:1000 diluted rabbit anti-human IgG (γ-chain specific) was added to each well, and incubated at 37° C. for 2 hours. The plate was washed 9 times with PBST, and 100 μl of 1:100 diluted mouse anti-rabbit IgG conjugated to a horseradish peroxidase-dextran polymer was added to each well, and then the plate was incubated at room temperature for 40 minutes. After the plate was washed, 100 μl of a tetramethylbenzidine substrate solution was added to each well. The reaction was stopped by the addition of 2.0 M phosphoric acid. The cutoff value was calculated as the mean±3 SD of the optical density values of the control obtained from the healthy donors.
The level of IgG that reacts with each of the 62 types of peptides was measured in the sera from 12 patients infected with HCV and 10 healthy donors (HDs) (Table 1).

| Substance | Healthy donors (n = 10) Positive n | HCV patients (n = 12) Positive n | Healthy donors (n = 10) Positive % | HCV patients (n = 12) Positive % |
| --- | --- | --- | --- | --- |
| 52 (ILAGYGAGV; Hepatitis C Virus) [Peptide 52] | 1 | 0 | 10% | 0% |
| 38 (SFSIFLLALL; Hepatitis C Virus) [Peptide 38] | 0 | 7 | 0% | 58% |
| 29 (TFLVGLNQYL; Hepatitis C Virus) [Peptide 29] | 0 | 2 | 0% | 17% |
| 23 (GYGAGVAGAL; Hepatitis C Virus) [Peptide 23] | 0 | 2 | 0% | 17% |
| 17 (QFKQKAIGL; Hepatitis C Virus) [Peptide 17] | 0 | 3 | 0% | 25% |
| 26 (AYALYGVWPL; Hepatitis C Virus) [Peptide 26] | 0 | 2 | 0% | 17% |
| 28 (YYRGLDVSVI; Hepatitis C Virus) [Peptide 28] | 0 | 2 | 0% | 17% |
| 44 (WFMWCLLLL; Hepatitis C Virus) [Peptide 44] | 0 | 0 | 0% | 0% |
| 12 (HYAPRPCGI; Hepatitis C Virus) [Peptide 12] | 0 | 9 | 0% | 75% |
| 61 (HYRDVLKEM; Hepatitis C Virus) [Peptide 61] | 1 | 3 | 10% | 25% |
| 32 (IFLLALLSCL; Hepatitis C Virus) [Peptide 32] | 0 | 7 | 0% | 58% |
| 19 (HYVQMALMKL; Hepatitis C Virus) [Peptide 19] | 0 | 1 | 0% | 8% |
| 57 (NLPGCSFSI; Hepatitis C Virus) [Peptide 57] | 1 | 0 | 10% | 0% |
| 8 (SFAIKWEYVL; Hepatitis C Virus) [Peptide 8] | 0 | 0 | 0% | 0% |
| 36 (GYGAGVAGAL; Hepatitis C Virus) [Peptide 36] | 0 | 1 | 0% | 8% |
| 43 (ILHTPGCV; Hepatitis C Virus) [Peptide 43] | 0 | 3 | 0% | 25% |

| Substance | Healthy donors (n = 10) Positive n | HCV patients (n = 12) Positive n | Healthy donors (n = 10) Positive % | HCV patients (n = 12) Positive % |
| --- | --- | --- | --- | --- |
| 5 (HYAPRPCGI; Hepatitis C Virus) [Peptide 5] | 0 | 0 | 0% | 0% |
| 25 (VYHGAGSKTL; Hepatitis C Virus) [Peptide 25] | 0 | 6 | 0% | 50% |
| 11 (AYMSKAHGI; Hepatitis C Virus) [Peptide 11] | 0 | 6 | 0% | 50% |
| 56 (ALAHGVRAL; Hepatitis C Virus) [Peptide 56] | 1 | 0 | 10% | 0% |
| 66 (QFKQKALGLL; Hepatitis C Virus) [Peptide 66] | 0 | 3 | 0% | 25% |
| 33 (NFISGIQYL; Hepatitis C Virus) [Peptide 33] | 0 | 0 | 0% | 0% |
| 10 (AYALYGVWPL; Hepatitis C Virus) [Peptide 10] | 0 | 1 | 0% | 8% |
| 30 (VFVGLILLTL; Hepatitis C Virus) [Peptide 30] | 0 | 4 | 0% | 33% |
| 20 (TYVYDHLTPL; Hepatitis C Virus) [Peptide 20] | 0 | 0 | 0% | 0% |
| 37 (DFKTWLQSKL; Hepatitis C Virus) [Peptide 37] | 0 | 1 | 0% | 8% |
| 47 (LLCPAGHAV; Hepatitis C Virus) [Peptide 47] | 2 | 1 | 20% | 8% |
| 45 (SLLAPGAKQNV; Hepatitis C Virus) [Peptide 45] | 3 | 0 | 30% | 0% |
| 13 (VYEAADMIM; Hepatitis C Virus) [Peptide 13] | 0 | 6 | 0% | 50% |
| 35 (AFTASITSPL; Hepatitis C Virus) [Peptide 35] | 0 | 0 | 0% | 0% |
| 42 (HYRDVLKEM; Hepatitis C Virus) [Peptide 42] | 0 | 1 | 0% | 8% |
